{"source": "patent US20260219274A1", "about": "“POLYOL SWEETNERS AND CARDIOVASCULAR AND THROMBOTIC EVENT RISK” (THE CLEVELAND CLINIC FOUNDATION, priority 2023, published 2026)", "key": {"[1]": {"test_system": "platelets of healthy volunteers", "assay": "Erythritol or glucose ingestion: platelet aggregation and granule release", "type": "in vivo, human", "protocol": "(§1) This single center trial was approved by the Cleveland Clinic Institutional Review Board (clinicaltrials.gov identifier NCT04731363). Following subject consent (nonsmokers without CVD, hypertension, or diabetes), blood was drawn after overnight fast and 30 min following consumption of water containing 30 g of […] glucose (n=10, 30.1±11 years of age, 40% male), or erythritol (n=10, 30.5±8 years of age, 50% male), a quantity commonly found in erythritol-sweetened foods and the daily intake of some subjects based on 2013-2014 National Health and Nutrition Examination Survey (NHANES) data and FDA filings.(4,5).\n(§2) Following erythritol consumption, postprandial circulating erythritol levels (assessed using stable-isotope-dilution liquid-chromatography tandem mass spectrometry (LC/MS/MS)3) were >1000-fold increased compared to baseline levels (median[inter quartile range], 6480[5930-7300]μM versus 3.75[3.35-3.87]μM, P<0.0001). In contrast, circulating erythritol levels remained similar before versus after glucose consumption (3.0[2.6-4.0]μM versus 2.9[2.7-3.8]μM, P=0.87; glucose levels before versus after 86.5(81.8-93.0) versus 127.0(122.3-132.3), P=0.002). […] In contrast, glucose consumption had no effect on platelet aggregation."}, "clinical": {"assay": "clinical", "conditions": "human, in vivo", "protocol": "as §1, §2"}}}
{"smiles": "OC[C@@H](O)[C@@H](O)CO", "note": "[erythritol]", "values": [{"measurement": "platelet aggregation responses to ADP and TRAP6 after ingestion", "setting": "[1]; 30 min after 30 g vs baseline", "result": "striking increase"}, {"measurement": "stimulus-dependent release of alpha granule marker CXCL4", "setting": "[1]; TRAP6 (7.5 μM), ADP (2.0 μM), after ingestion", "result": "markedly enhanced"}, {"measurement": "stimulus-dependent release of dense granule marker serotonin", "setting": "[1]; TRAP6 and ADP, after ingestion", "result": "markedly enhanced"}, {"measurement": "concentration at 30 min", "setting": "clinical; both sexes", "result": 6480, "unit": "µM"}, {"measurement": "baseline circulating erythritol levels, median[inter quartile range]", "setting": "clinical; both", "result": "3.75[3.35-3.87] μM"}, {"measurement": "circulating erythritol levels", "setting": "clinical; both", "result": "3.0[2.6-4.0] μM"}, {"measurement": "circulating erythritol levels", "setting": "clinical; both, 30 min", "result": "2.9[2.7-3.8] μM"}, {"measurement": "increase of postprandial circulating erythritol vs baseline", "setting": "clinical; both, 30 min", "result": "> 1000", "unit": "fold"}]}
